{"source": "patent US5637309A", "about": "“Physiologically active substance-prolonged releasing-type pharmaceutical preparation” (Shiseido Company, Ltd., priority 1993, dated 1997)", "key": {"[1]": {"conditions": "relative to SEQ ID NO: 2; cited from earlier work"}, "[2]": {"system": "basilar artery", "experiment": "Cerebral vasospasm inhibition test on maxadilan (SEQ ID NO: 3) by cisterna puncture, angiography of the basilar artery", "type": "in vivo, Japanese white rabbit", "conditions": "aqueous solution, 7 μg per kg", "from_the_text": "Cerebral vasospasm inhibition test on maxadilan (SEQ ID NO: 3)\nA Japanese white rabbit (male, weighing 2-3 kg) was subjected to general anesthesia by injection of sodium pentobarbital through the auricular vein. After the rabbit was retained so as not to move, the surroundings of the punctured vein were disinfected with sterilized ethanol, a self-retaining needle was punctured into the vein, and immediately thereafter, a silicone-made extension tube equipped, at one end, with a three way cock connected at the two ways with 10-ml syringes each containing physiological saline and connected at the residual way with a 10-ml syringe containing sodium pentobarbital was connected to the self-retaining needle (when the blood vessel is thin, the blood vessel is stimulated by fingers to dilate it). […]\nA spot for angiography was determined by transillumination, the head was fast fixed, back flow of the blood was confirmed, and 0.8 ml of a contrast medium was injected under a certain pressure (2.3 kg/cm^2). […]\nGroups of rabbits, one group consisting of 5 animals, were treated as mentioned above, and among them, rabbits were selected wherein when the basilar artery was divided, starting from the junction from the vertebral artery, into three equal parts, and the diameter at the middle point was measured, spasm occurred at a level of 18% or more. […]"}}}
{"substance": "SEQ ID NO: 3: peptide wherein an amino acid sequence residue GSIL- is bonded to the N-terminus of SEQ ID NO: 1 maxadilan", "values": [{"measurement": "Vasodilative action (particularly, erythema activities), times higher than that of SEQ ID NO: 2", "setting": "[1]", "value": "about 10 times"}, {"measurement": "Inhibition of spasm compared to the sterile water administration group", "setting": "[2]; 3 days after blood injection", "value": "spasm was significantly inhibited"}, {"measurement": "Duration of significant inhibition of spasm (from immediately after the administration)", "setting": "[2]; vs sterile water group", "value": "about 4 hours"}]}
